In patent US20260049076A1, “Tertiary Amine Substituted Bicyclic Compounds Useful as T Cell Activators” (BRISTOL-MYERS SQUIBB COMPANY, priority 2022, published 2026):

Assays:
human DGKα = target: T1, human DGKα (Homo sapiens, UniProt P23743); experiment: In vitro DGK inhibition assay, DGKα liposome (LIPGLO) assay; format: biochemical; conditions: read-out: Enzyme Inhibition DGKalpha IC50
T1 construct: TVMV protease cleavage site (C); Hexa-His (C); made in house; host or cells: Sf9 insect cells (baculovirus)
Procedure: (§1) The DGKα and DGKζ reactions were performed using either extruded liposome (DGKα and DGKζ LIPGLO assays) or detergent/lipid micelle substrate (DGKα and DGKζ assays). The reactions were carried out in 50 mM MOPS pH 7.5, 100 mM NaCl, 10 mM MgCl2, 1 μM CaCl2, and 1 mM DTT (assay buffer). The reactions using a detergent/lipid micelle substrate also contained 50 mM octyl B-D-glucopyranoside. The lipid substrate concentrations were 11 mM PS and 1 mM DAG for the detergent/lipid micelle reactions. The lipid substrate concentrations were 2 mM PS, 0.25 mM DAG, and 2.75 mM PC for the extruded liposome reactions (5 mM total lipid). The reactions were carried out in 150 μM ATP The enzyme concentrations for the DGKα and DGKζ were 5 nM
(§2) The compound inhibition studies were carried out as follows: 25 nL (ADPGLO assay) or 50 nL (LIPGLO assay) droplets of each test compound (top concentration 10 mM with 11 point, 3-fold dilution series for each compound) solubilized in DMSO were transferred to wells of a white 1536 well plate (Corning 3725). A 5 mL enzyme/lipid substrate solution at 2× final reaction concentration was prepared by combining 2.5 mL 4× enzyme solution (20 nM DGKα, or DGKζ (prepared as described below) in assay buffer) and 2.5 mL of either 4× liposome or 4× detergent/lipid micelle solution (compositions described below) and incubated at room temperature for 10 minutes. Next, 1 μL 2× enzyme/lipid substrate solution was added to wells containing the test compound and reactions were initiated with the addition of 1 μL 300 uM ATP. The reactions were allowed to proceed for 2 hr (ADPGLO assay) or 1 hr (LIPGLO assay), after which 2 μL Glo Reagent (Promega V9101) was added and incubated for 40 minutes. Next, 4 μL Kinase Detection Reagent was added and incubated for 30 minutes. Luminescence was recorded using an EnVision microplate reader. […] The compounds were evaluated at 11 concentrations to determine IC50.
(§3) The lipid composition was 5 mol % DAG (Avanti 8008110), 40 mol % PS (Avanti 840035P), and 55 mol % PC (Avanti 850457) at a total lipid concentration of 7-8 mg/mL for the liposome solution. The PC, DAG, and PS were dissolved in chloroform, combined, and dried in vacuo to a thin film. The lipids were hydrated to 20 mM in 50 mM MOPS pH 7.5, 100 mM NaCl, 5 mM MgCl2, and were freeze-thawed five times. The lipid suspension was extruded through a 100 nm polycarbonate filter 10-12 times. […] The liposome preparation was stored at 4° C. for as long as four weeks.
as §3, with “15.2” for “7-8”, “the 4×” for “the”, “eleven” for “10-12”
(§4) Human DGK-alpha-TVMV-His-pFBgate and human DGK-zeta-transcript variant-2-TVMV-His-pFBgate baculovirus samples were generated using the Bac-to-Bac baculovirus expression system (Invitrogen) according to the manufacturer's protocol. […] Baculovirus amplification was achieved using infected Sf9 cells at 1:1500 virus/cell ratios, and grown for 65 hours at 27° C. post-transfection.
(§5) The expression scale up for each protein was carried out in the Cellbag 50L WAVE-Bioreactor System 20/50 from GE Healthcare Bioscience. 12 L of 2×10^6 cells/mL Sf9 cells (Expression System, Davis, CA) grown in ESF921 insect medium (Expression System) were infected with virus stock at 1:200 virus/cell ratios, and grown for 66-68 hours at 27° C. post-infection.

human DGKζ = target: T2, human DGKζ (Homo sapiens, UniProt Q13574); experiment: In vitro DGK inhibition assay, DGKζ liposome (LIPGLO) assay; format: biochemical; conditions: read-out: Enzyme Inhibition DGKzeta IC50
T2 construct: TVMV protease cleavage site (C); Hexa-His (C); made in house; host or cells: Sf9 insect cells (baculovirus)
Procedure: as §1, §2, §3
as §3, with “15.2” for “7-8”, “the 4×” for “the”, “eleven” for “10-12”
as §4, §5

T2 sequence (Q13574 with tags, fused parts or gaps isoform Q13574-4): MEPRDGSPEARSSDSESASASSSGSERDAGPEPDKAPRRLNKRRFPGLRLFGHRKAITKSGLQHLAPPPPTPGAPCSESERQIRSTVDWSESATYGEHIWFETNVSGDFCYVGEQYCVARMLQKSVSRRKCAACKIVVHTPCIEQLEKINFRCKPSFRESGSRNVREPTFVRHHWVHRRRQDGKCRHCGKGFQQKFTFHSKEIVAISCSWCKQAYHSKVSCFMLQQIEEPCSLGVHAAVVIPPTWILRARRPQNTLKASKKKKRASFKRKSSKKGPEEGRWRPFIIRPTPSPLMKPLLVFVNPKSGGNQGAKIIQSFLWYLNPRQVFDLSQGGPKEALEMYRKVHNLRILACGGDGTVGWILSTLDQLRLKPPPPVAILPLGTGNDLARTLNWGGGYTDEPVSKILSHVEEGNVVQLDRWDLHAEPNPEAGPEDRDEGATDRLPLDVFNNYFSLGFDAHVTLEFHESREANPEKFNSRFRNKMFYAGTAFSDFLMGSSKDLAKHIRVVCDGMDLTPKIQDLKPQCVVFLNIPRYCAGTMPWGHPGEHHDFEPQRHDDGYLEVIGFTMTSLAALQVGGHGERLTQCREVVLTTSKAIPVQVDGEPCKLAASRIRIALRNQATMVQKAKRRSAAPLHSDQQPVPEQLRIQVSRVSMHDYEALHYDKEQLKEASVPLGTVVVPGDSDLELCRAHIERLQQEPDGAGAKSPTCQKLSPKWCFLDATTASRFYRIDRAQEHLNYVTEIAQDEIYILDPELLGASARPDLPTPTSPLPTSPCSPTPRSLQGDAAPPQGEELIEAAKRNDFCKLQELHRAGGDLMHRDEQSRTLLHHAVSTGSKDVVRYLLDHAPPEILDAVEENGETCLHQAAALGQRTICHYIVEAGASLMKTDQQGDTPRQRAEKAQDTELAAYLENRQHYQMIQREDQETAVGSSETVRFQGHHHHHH
T1 sequence (P23743 with tags, fused parts or gaps): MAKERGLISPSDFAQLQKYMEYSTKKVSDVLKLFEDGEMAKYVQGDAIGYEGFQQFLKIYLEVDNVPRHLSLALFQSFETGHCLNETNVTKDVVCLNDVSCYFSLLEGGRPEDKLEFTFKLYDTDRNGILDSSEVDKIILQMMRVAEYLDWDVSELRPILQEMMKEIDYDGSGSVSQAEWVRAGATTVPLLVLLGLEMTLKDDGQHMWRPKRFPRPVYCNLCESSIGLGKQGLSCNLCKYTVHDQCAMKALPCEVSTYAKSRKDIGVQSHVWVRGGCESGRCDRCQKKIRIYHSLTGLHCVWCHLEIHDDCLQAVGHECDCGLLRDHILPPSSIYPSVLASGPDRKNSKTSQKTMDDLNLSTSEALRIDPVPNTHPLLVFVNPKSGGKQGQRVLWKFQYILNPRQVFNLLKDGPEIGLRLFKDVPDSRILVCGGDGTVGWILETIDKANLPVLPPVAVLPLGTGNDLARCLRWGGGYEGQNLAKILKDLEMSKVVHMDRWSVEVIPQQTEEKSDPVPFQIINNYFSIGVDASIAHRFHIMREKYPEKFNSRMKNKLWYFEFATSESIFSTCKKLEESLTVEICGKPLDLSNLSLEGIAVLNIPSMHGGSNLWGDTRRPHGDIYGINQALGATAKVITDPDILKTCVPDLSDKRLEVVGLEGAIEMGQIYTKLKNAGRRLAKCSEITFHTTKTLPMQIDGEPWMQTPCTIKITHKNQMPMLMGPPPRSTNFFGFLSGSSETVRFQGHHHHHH

SMILES | IC50 (human DGKα) [µM] | IC50 (human DGKζ) [µM]
Cn1c(=O)cc(N(Cc2ccccc2)CC2CC2)c2nc(C#N)ccc21 [Example 52, 8-(benzyl(cyclopropylmethyl)amino)-5-methyl-6-oxo-5,6-dihydro-1,5-naphthyridine-2-carbonitrile] | 4.5 | 12
CC(C1CC1)N(C)c1cc(=O)n(C)c2ccc(C#N)nc12 (racemic) [Example 32, 8-((1-cyclopropylethyl)(methyl)amino)-5-methyl-6-oxo-5,6-dihydro-1,5-naphthyridine-2-carbonitrile] | 1.4 | 90
Cn1c(=O)c(C#N)c(N(CC2CC2)c2ccc(C3CC3)cc2)c2ncccc21 [Example 60, 4-((cyclopropylmethyl)(4-cyclopropylphenyl)amino)-1-methyl-2-oxo-1,2-dihydro-1,5-naphthyridine-3-carbonitrile] | > 37 | 1.4
CN(c1ccc(Cl)cc1)c1cc(=O)n(C)c2ccc(C#N)nc12 [Example 29, 8-((4-chlorophenyl)(methyl)amino)-5-methyl-6-oxo-5,6-dihydro-1,5-naphthyridine-2-carbonitrile] | 0.45 | 17
Cc1ccccc1N(CC1CC1)c1cc(=O)n(C)c2ccc(C#N)nc12 [Example 49, 8-((cyclopropylmethyl)(o-tolyl)amino)-5-methyl-6-oxo-5,6-dihydro-1,5-naphthyridine-2-carbonitrile] | 4.8 | 56
Cn1c(=O)c(C#N)c(N(CC2CC2)c2ccc(C3CC3)cc2)c2nc(C#N)ccc21 [Example 59, 8-((cyclopropylmethyl)(4-cyclopropylphenyl)amino)-5-methyl-6-oxo-5,6-dihydro-1,5-naphthyridine-2,7-dicarbonitrile] | > 37 | 6.6
CN(c1nc(=O)n(C)c2ccc(Cl)nc12)C1CCCCC1 [Example 30, 6-chloro-4-(cyclohexyl(methyl)amino)-1-methylpyrido[3,2-d]pyrimidin-2(1H)-one] | 0.14 | 73
Cn1c(=O)nc(N(CC2CC2)c2ccc(C3CC3)cc2)c2nc(C#N)ccc21 [Example 57, 4-((cyclopropylmethyl)(4-cyclopropylphenyl)amino)-1-methyl-2-oxo-1,2-dihydropyrido[3,2-d]pyrimidine-6-carbonitrile] | 4.2 | 0.15
CN(c1cccc(-c2ccc(OC(F)(F)F)cc2)c1)c1nc(=O)n(C)c2ccc(C#N)nc12 [Example 3, 1-methyl-4-(methyl(4′-(trifluoromethoxy)-[1,1′-biphenyl]-3-yl)amino)-2-oxo-1,2-dihydropyrido[3,2-d]pyrimidine-6-carbonitrile] | 1.8 | > 38
Cn1c(=O)nc(N(CC2CC2)c2ccc(C3CC3)cc2)c2nc(Cl)ccc21 [Example 58, 6-chloro-4-((cyclopropylmethyl) (4-cyclopropylphenyl)amino)-1-methylpyrido[3,2-d]pyrimidin-2(1H)-one] | 3.8 | 1

Continued, values first:

IC50 (human DGKα) [µM] | IC50 (human DGKζ) [µM] | SMILES
0.93 | 13 | CN(C)C(=O)c1ccc(-c2cccc(N(CC3CC3)c3cc(=O)n(C)c4ccc(C#N)nc34)c2)cc1 [Example 101, 3′-((6-cyano-1-methyl-2-oxo-1,2-dihydro-1,5-naphthyridin-4-yl)(cyclopropylmethyl)amino)-N,N-dimethyl-[1,1′-biphenyl]-4-carboxamide]
0.77 | 7.2 | Cc1cccc(-c2cccc(N(CC3CC3)c3cc(=O)n(C)c4ccc(C#N)nc34)c2)c1 [Example 92, 8-((cyclopropylmethyl)(3′-methyl-[1,1′-biphenyl]-3-yl)amino)-5-methyl-6-oxo-5,6-dihydro-1,5-naphthyridine-2-carbonitrile]
6.2 | 1.5 | Cc1cccc(-c2ccc(N(CC3CC3)c3cc(=O)n(C)c4ccc(C#N)nc34)cc2)c1 [Example 74, 8-((cyclopropylmethyl)(3′-methyl-[1,1′-biphenyl]-4-yl)amino)-5-methyl-6-oxo-5,6-dihydro-1,5-naphthyridine-2-carbonitrile]
3.8 | 3.7 | Cn1c(=O)cc(N(CC2CC2)c2ccc(-c3cccc(O)c3)cc2)c2nc(C#N)ccc21 [Example 81, 8-((cyclopropylmethyl)(3′-hydroxy-[1,1′-biphenyl]-4-yl)amino)-5-methyl-6-oxo-5,6-dihydro-1,5-naphthyridine-2-carbonitrile]
1.9 | 8 | Cn1c(=O)cc(N(CC2CC2)c2cccc(-c3ccccc3Cl)c2)c2nc(C#N)ccc21 [Example 97, 8-((2′-chloro-[1,1′-biphenyl]-3-yl)(cyclopropylmethyl)amino)-5-methyl-6-oxo-5,6-dihydro-1,5-naphthyridine-2-carbonitrile]
5.3 | 2 | COc1ccc(-c2ccc(N(CC3CC3)c3cc(=O)n(C)c4ccc(C#N)nc34)cc2)cc1 [Example 73, 8-((cyclopropylmethyl)(4′-methoxy-[1,1′-biphenyl]-4-yl)amino)-5-methyl-6-oxo-5,6-dihydro-1,5-naphthyridine-2-carbonitrile]
0.17 | 27 | Cn1c(=O)cc(N(CC2CC2)c2cccc(-c3ccccc3)c2)c2nc(C#N)ccc21 [Example 70, 8-([1,1′-biphenyl]-3-yl(cyclopropylmethyl)amino)-5-methyl-6-oxo-5,6-dihydro-1,5-naphthyridine-2-carbonitrile]
41 | 5.2 | Cn1c(=O)cc(N(CC2CC2)c2cccc(-c3cccc(C(N)=O)c3)c2)c2nc(C#N)ccc21 [Example 104, 3′-((6-cyano-1-methyl-2-oxo-1,2-dihydro-1,5-naphthyridin-4-yl) (cyclopropylmethyl)amino)-[1,1′-biphenyl]-3-carboxamide]
2.5 | 0.92 | CN(C)c1cccc(-c2ccc(N(CC3CC3)c3cc(=O)n(C)c4ccc(C#N)nc34)cc2)c1 [Example 89, 8-((cyclopropylmethyl)(3′-(dimethylamino)-[1,1′-biphenyl]-4-yl)amino)-5-methyl-6-oxo-5,6-dihydro-1,5-naphthyridine-2-carbonitrile]
33 | 4.4 | Cn1c(=O)cc(N(CC2CC2)c2cccc(-c3cccc(CNS(C)(=O)=O)c3)c2)c2nc(C#N)ccc21 [Example 105, N-((3′-((6-cyano-1-methyl-2-oxo-1,2-dihydro-1,5-naphthyridin-4-yl) (cyclopropylmethyl)amino)-[1,1′-biphenyl]-3-yl)methyl)methanesulfonamide]
0.023 | 3.2 | COc1ccc(-c2cccc(N(CC3CC3)c3cc(=O)n(C)c4ccc(C#N)nc34)c2)cc1 [Example 91, 8-((cyclopropylmethyl)(4′-methoxy-[1,1′-biphenyl]-3-yl)amino)-5-methyl-6-oxo-5,6-dihydro-1,5-naphthyridine-2-carbonitrile]
6.3 | 3.7 | CN(C)c1cccc(-c2cccc(N(CC3CC3)c3cc(=O)n(C)c4ccc(C#N)nc34)c2)c1 [Example 109, 8-((cyclopropylmethyl)(3′-(dimethylamino)-[1,1′-biphenyl]-3-yl)amino)-5-methyl-6-oxo-5,6-dihydro-1,5-naphthyridine-2-carbonitrile]
